Source: patent US8691991B2 (priority 2004, dated 2014)

These molecules were tested on Pseudotyped HIV vector (assay: Pseudotyped HIV vector expressing luciferase reporter assay). Details: Human immunodeficiency virus 1.
Type: cell-based
Experimental: Pseudotyped HIV Vector Expressing Luciferase Reporter Assay
Expression of luciferase reporter following viral integration was performed essentially as described in Jármy, G. et al., J. Medical Virology, 64:223-231, 2001.

`COCCN(C)C(=O)Cn1c(=O)c(C(=O)NC(C)CO)c(O)c2ncc(Cc3ccc(F)cc3)cc21` (racemic) [Example 105, (±)-7-[(4-Fluorophenyl)methyl]-4-hydroxy-N-[2-hydroxy-1-methylethyl]-1-(2-{methyl[2-(methyloxy)ethyl]amino}-2-oxoethyl)-2-oxo-1,2-dihydro-1,5-naphthyridine-3-carboxamide] and `COCCN(C)C(=O)Cn1c(=O)c(C(=O)NCC(C)O)c(O)c2ncc(Cc3ccc(F)cc3)cc21` (racemic) [Example 106, (±)-7-[(4-Fluorophenyl)methyl]-4-hydroxy-N-[(2-hydroxypropyl]-1-(2-{methyl[2-(methyloxy)ethyl]amino}-2-oxoethyl)-2-oxo-1,2-dihydro-1,5-naphthyridine-3-carboxamide] cannot be ordered by IC50: under 10 nM for the first, under 10 nM for the second.

`COCCNC(=O)c1c(O)c2ncc(Cc3ccc(F)cc3)cc2[nH]c1=O` [Example 2, 7-(4-Fluorobenzyl)-4-hydroxy-N-(2-methoxyethyl)-2-oxo-1,2-dihydro-1,5-naphthyridine-3-carboxamide] and `O=C(NCCOCCO)c1c(O)c2ncc(Cc3ccc(F)cc3)cc2[nH]c1=O` [Example 86, 7-[(4-Fluorophenyl)methyl]-4-hydroxy-N-{2-[(2-hydroxyethyl)oxy]ethyl}-2-oxo-1,2-dihydro-1,5-naphthyridine-3-carboxamide] cannot be ordered by IC50: under 10 nM for the first, under 10 nM for the second.

`O=C(NC1CC1)c1c(O)c2ncc(Cc3ccc(F)cc3)cc2n(CCN2CCCC2=O)c1=O` [Example 9, N-Cyclopropyl-7-(4-fluorobenzyl)-4-hydroxy-2-oxo-1-[2-(2-oxopyrrolidin-1-yl)ethyl]-1,2-dihydro-1,5-naphthyridine-3-carboxamide] and `COCCNC(=O)c1c(O)c2ncc(Cc3ccc(F)cc3)cc2n(CCN2CCCC2=O)c1=O` [Example 49, 7-(4-Fluorobenzyl)-4-hydroxy-N-(2-methoxyethyl)-2-oxo-1-[2-(2-oxopyrrolidin-1-yl)ethyl]-1,2-dihydro-1,5-naphthyridine-3-carboxamide] cannot be ordered by IC50: under 10 nM for the first, under 10 nM for the second.

First: O=C(NCCN1CCOCC1)c1c(O)c2ncc(Cc3ccc(F)cc3)cc2n(CCN2CCCC2=O)c1=O [Example 10, 7-(4-Fluorobenzyl)-4-hydroxy-N-(2-morpholin-4-ylethyl)-2-oxo-1-[2-(2-oxopyrrolidin-1-yl)ethyl]-1,2-dihydro-1,5-naphthyridine-3-carboxamide]
Second: O=C(NCCCN1CCCC1=O)c1c(O)c2ncc(Cc3ccc(F)cc3)cc2n(CC(=O)N2CCOCC2)c1=O [Example 94, 7-[(4-Fluorophenyl)methyl]-4-hydroxy-1-[2-(4-morpholinyl)-2-oxoethyl]-2-oxo-N-[3-(2-oxo-1-pyrrolidinyl)propyl]-1,2-dihydro-1,5-naphthyridine-3-carboxamide]
The IC50 of the first is lower: under 10 nM for the first, 10 to 25 nM for the second. The first is the more potent here.

`COCCNC(=O)c1c(O)c2ncc(Cc3ccccc3)cc2n(CC(=O)N2CCOCC2)c1=O` [Example 12] and `COCCNC(=O)c1c(O)c2ncc(Cc3ccc(F)cc3)cc2n(CC(=O)N2CCOCC2)c1=O` [Example 84, 7-[(4-Fluorophenyl)methyl]-4-hydroxy-N-[2-(methyloxy)ethyl]-1-[2-(4-morpholinyl)-2-oxoethyl]-2-oxo-1,2-dihydro-1,5-naphthyridine-3-carboxamide] cannot be ordered by IC50: under 10 nM for the first, under 10 nM for the second.

First: COCCNC(=O)c1c(O)c2ncc(Cc3ccccc3)cc2[nH]c1=O [Example 17]
Second: COCCNC(=O)c1c(O)c2ncc(Cc3ccccc3)cc2n(CC2CC2)c1=O [Example 54, 7-Benzyl-1-(cyclopropylmethyl)-4-hydroxy-N-(2-methoxyethyl)-2-oxo-1,2-dihydro-1,5-naphthyridine-3-carboxamide]
The IC50 of the first is higher: 10 to 25 nM for the first, under 10 nM for the second.

`O=C(NCCCN1CCCC1=O)c1c(O)c2ncc(Cc3ccc(F)cc3)cc2[nH]c1=O` [Example 28] and `Cn1c(=O)c(C(=O)NCCCN2CCCC2=O)c(O)c2ncc(Cc3ccc(F)cc3)cc21` [Example 99, 7-[(4-Fluorophenyl)methyl]-4-hydroxy-1-methyl-2-oxo-N-[3-(2-oxo-1-pyrrolidinyl)propyl]-1,2-dihydro-1,5-naphthyridine-3-carboxamide] cannot be ordered by IC50: under 10 nM for the first, under 10 nM for the second.

`O=C(NCCN1CCOCC1)c1c(O)c2ncc(Cc3ccc(F)cc3)cc2[nH]c1=O` [Example 36, 7-[(4-Fluorophenyl)methyl]-4-hydroxy-N-[2-(4-morpholinyl)ethyl]-2-oxo-1,2-dihydro-1,5-naphthyridine-3-carboxamide] and `Cn1c(=O)c(C(=O)NCCN2CCOCC2)c(O)c2ncc(Cc3ccc(F)cc3)cc21` [Example 96, 7-[(4-Fluorophenyl)methyl]-4-hydroxy-1-methyl-N-[2-(4-morpholinyl)ethyl]-2-oxo-1,2-dihydro-1,5-naphthyridine-3-carboxamide] cannot be ordered by IC50: under 10 nM for the first, under 10 nM for the second.

`COCCNC(=O)c1c(O)c2ncc(Cc3ccccc3)cc2n(Cc2ccc(S(C)(=O)=O)cc2)c1=O` [Example 45, 7-Benzyl-4-hydroxy-N-(2-methoxyethyl)-1-[4-(methylsulfonyl)benzyl]-2-oxo-1,2-dihydro-1,5-naphthyridine-3-carboxamide] and `COCCNC(=O)c1c(O)c2ncc(Cc3ccc(F)cc3)cc2n(Cc2ccc(S(C)(=O)=O)cc2)c1=O` [Example 64, 7-(4-Fluorobenzyl)-4-hydroxy-N-(2-methoxyethyl)-1-[4-(methylsulfonyl)benzyl]-2-oxo-1,2-dihydro-1,5-naphthyridine-3-carboxamide] cannot be ordered by IC50: under 10 nM for the first, under 10 nM for the second.

`COCCNC(=O)c1c(O)c2ncc(Cc3ccccc3)cc2n(Cc2nccn2C)c1=O` [Example 50, 7-Benzyl-4-hydroxy-N-(2-methoxyethyl)-1-[(1-methyl-1H-imidazol-2-yl)methyl]-2-oxo-1,2-dihydro-1,5-naphthyridine-3-carboxamide] and `COCCNC(=O)c1c(O)c2ncc(Cc3ccccc3)cc2n(Cc2nccs2)c1=O` [Example 62, 7-Benzyl-4-hydroxy-N-(2-methoxyethyl)-2-oxo-1-(1,3-thiazol-2-ylmethyl)-1,2-dihydro-1,5-naphthyridine-3-carboxamide] cannot be ordered by IC50: under 10 nM for the first, under 10 nM for the second.

`O=C(NCCN1CCOCC1)c1c(O)c2ncc(Cc3ccc(F)cc3)cc2n(CC(=O)N2CCOCC2)c1=O` [Example 83, 7-[(4-Fluorophenyl)methyl]-4-hydroxy-N-[2-(4-morpholinyl)ethyl]-1-[2-(4-morpholinyl)-2-oxoethyl]-2-oxo-1,2-dihydro-1,5-naphthyridine-3-carboxamide] and `O=C(NCCCN1CCOCC1)c1c(O)c2ncc(Cc3ccc(F)cc3)cc2n(CC(=O)N2CCOCC2)c1=O` [Example 93, 7-[(4-Fluorophenyl)methyl]-4-hydroxy-1-[2-(4-morpholinyl)-2-oxoethyl]-N-[3-(4-morpholinyl)propyl]-2-oxo-1,2-dihydro-1,5-naphthyridine-3-carboxamide] fall in the same range of IC50: 10 to 25 nM for the first, 10 to 25 nM for the second.

`CC(C)(CO)CNC(=O)c1c(O)c2ncc(Cc3ccc(F)cc3)cc2[nH]c1=O` [Example 85, 7-[(4-Fluorophenyl)methyl]-4-hydroxy-N-(3-hydroxy-2,2-dimethylpropyl)-2-oxo-1,2-dihydro-1,5-naphthyridine-3-carboxamide] and `Cn1c(=O)c(C(=O)NCCO)c(O)c2ncc(Cc3ccc(F)cc3)cc21` [Example 101, 7-[(4-Fluorophenyl)methyl]-4-hydroxy-N-(2-hydroxyethyl)-1-methyl-2-oxo-1,2-dihydro-1,5-naphthyridine-3-carboxamide] cannot be ordered by IC50: under 10 nM for the first, under 10 nM for the second.

`COCCNC(=O)c1c(O)c2ncc(Cc3ccc(F)cc3)cc2n(CC(=O)N(C)C)c1=O` [Example 89, 1-[2-(Dimethylamino)-2-oxoethyl]-7-[(4-fluorophenyl)methyl]-4-hydroxy-N-[2-(methyloxy)ethyl]-2-oxo-1,2-dihydro-1,5-naphthyridine-3-carboxamide] and `COCCNC(=O)c1c(O)c2ncc(Cc3ccc(F)cc3)cc2n(CC(=O)N(C)CCOC)c1=O` [Example 104, 7-[(4-Fluorophenyl)methyl]-4-hydroxy-1-(2-{methyl[2-(methyloxy)ethyl]amino}-2-oxoethyl)-N-[2-(methyloxy)ethyl]-2-oxo-1,2-dihydro-1,5-naphthyridine-3-carboxamide] cannot be ordered by IC50: under 10 nM for the first, under 10 nM for the second.

First: CN(C)C(=O)Cn1c(=O)c(C(=O)NCCN2CCOCC2)c(O)c2ncc(Cc3ccc(F)cc3)cc21 [Example 91, 1-[2-(Dimethylamino)-2-oxoethyl]-7-[(4-fluorophenyl)methyl]-4-hydroxy-N-[2-(4-morpholinyl)ethyl]-2-oxo-1,2-dihydro-1,5-naphthyridine-3-carboxamide]
Second: Cn1c(=O)c(C(=O)NCCCN2CCOCC2)c(O)c2ncc(Cc3ccc(F)cc3)cc21 [Example 97, 7-[(4-Fluorophenyl)methyl]-4-hydroxy-1-methyl-N-[3-(4-morpholinyl)propyl]-2-oxo-1,2-dihydro-1,5-naphthyridine-3-carboxamide]
The IC50 of the first is higher: 10 to 25 nM for the first, under 10 nM for the second. The second is the more potent here.

First: O=C(NCCO)c1c(O)c2ncc(Cc3ccc(F)cc3)cc2n(CC(=O)N2CCOCC2)c1=O [Example 95, 7-[(4-Fluorophenyl)methyl]-4-hydroxy-N-(2-hydroxyethyl)-1-[2-(4-morpholinyl)-2-oxoethyl]-2-oxo-1,2-dihydro-1,5-naphthyridine-3-carboxamide]
Second: COCCNC(=O)c1c(O)c2ncc(Cc3ccc(F)cc3)cc2n(CC(=O)N2CCN(C)CC2)c1=O [Example 102, 7-[(4-Fluorophenyl)methyl]-4-hydroxy-N-[2-(methyloxy)ethyl]-1-[2-(4-methyl-1-piperazinyl)-2-oxoethyl]-2-oxo-1,2-dihydro-1,5-naphthyridine-3-carboxamide]
The IC50 of the first is higher: 10 to 25 nM for the first, under 10 nM for the second. The second is the more potent here.

`COCCNC(=O)c1c(O)c2ncc(Cc3ccc(F)cc3)cc2n(C)c1=O` [Example 98, 7-[(4-Fluorophenyl)methyl]-4-hydroxy-1-methyl-N-[2-(methyloxy)ethyl]-2-oxo-1,2-dihydro-1,5-naphthyridine-3-carboxamide] and `CCOCCNC(=O)c1c(O)c2ncc(Cc3ccc(F)cc3)cc2n(CC(=O)N(C)CCOC)c1=O` [Example 107, N-[2-(ethyloxy)ethyl]-7-[(4-fluorophenyl)methyl]-4-hydroxy-1-(2-{methyl[2-(methyloxy)ethyl]amino}-2-oxoethyl)-2-oxo-1,2-dihydro-1,5-naphthyridine-3-carboxamide] cannot be ordered by IC50: under 10 nM for the first, under 10 nM for the second.
